Results: publication PMC6964273 (ACS Omega, 2019)
Where two headings read alike, the source gives them in different places.

Experiments:
[1] = tested on: RPMI-7951 cancer cell line; assay: DFO assay; format: cell-based, human
[2] = tested on: C3PV cell line; assay: MTT cell viability assay on normal primary fibroblasts C3PV; format: cell-based, human; settings: for IC50: 24 h, read-out: IC50 ± SD C3PV
[3] = tested on: SK-MEL24 cancer cell line; assay: DFO assay; format: cell-based, human
[4] = tested on: SK-MEL3 cancer cell line; assay: DFO assay; format: cell-based, human
[5] = tested on: SK-MEL24 metastatic melanoma cancer cell line; assay: MTT cell viability assay on SK-MEL24; format: cell-based, human; settings: read-out: IC50 ± SD SK-MEL24
[6] = tested on: SK-MEL3 metastatic melanoma cancer cell line; assay: MTT cell viability assay on SK-MEL3; format: cell-based, human; settings: read-out: IC50 ± SD SK-MEL3
[7] = tested on: RPMI-7951 metastatic melanoma cancer cell line; assay: MTT cell viability assay on RPMI-7951; format: cell-based, human; settings: read-out: IC50 ± SD RPMI-7951
[8] = tested on: cervical cancer cell line (HeLa); assay: MTT cell viability assay on HeLa; format: cell-based, human
[9] = Stability in the cell culture medium by TLC and HPLC; format: physicochemical; settings: 48 h, room temperature
[10] = Homo sapiens, RPMI-7951, 24 h, read-out: IC50 ± SD RPMI-7951 without DFO
[11] = Homo sapiens, RPMI-7951, read-out: IC50 ± SD RPMI-7951 with DFO
[12] = Homo sapiens, SK-MEL-24, 24 h, read-out: IC50 ± SD SK-MEL24 without DFO
[13] = Homo sapiens, SK-MEL-24, read-out: IC50 ± SD SK-MEL24 with DFO
[14] = Homo sapiens, SK-MEL3, 24 h, read-out: IC50 ± SD SK-MEL3 without DFO
[15] = Homo sapiens, SK-MEL3, read-out: IC50 ± SD SK-MEL3 with DFO
[16] = Homo sapiens, read-out: IC50 ± SD HeLa
[17] = read-out: IC50 ± SD RPMI-7951 without DFO, without DFO, treatment time 24 hours
[18] = read-out: IC50 ± SD SK-MEL24 without DFO, without DFO, treatment time 24 hours
[19] = read-out: IC50 ± SD SK-MEL3 without DFO, without DFO, treatment time 24 hours

Structure (SMILES)	IC50 ([2]; Homo sapiens, C3PV) [nM]	IC50 ([5]; Homo sapiens, SK-MEL-24, 24 h) [nM]	IC50 ([6]; Homo sapiens, SK-MEL3, 24 h) [nM]	IC50 ([7]; Homo sapiens, RPMI-7951, 24 h) [nM]	IC50 [8, 16] [nM]	other results
C[C@@H]1CC[C@H]2[C@@H](C)C(=O)O[C@@H]3O[C@@]4(C)CC[C@@H]1[C@]32OO4 [Compound 1, Artemisinin]	> 300000	8660 ± 4560	3430 ± 860	3620 ± 990	1370 ± 590	IC50 [1, 10]: 3620 ± 1600 nM; IC50 [1, 11]: 29000 ± 2800 nM; cytotoxicity on normal cell line C3PV (in words) ([2]; C3PV, MTT): not cytotoxic; IC50 [3, 12]: 8660 ± 900 nM; IC50 [3, 13]: 27800 ± 3400 nM; IC50 [4, 14]: 3430 ± 800 nM; IC50 [4, 15]: > 300000 nM
C[C@H]1[C@@H](O)O[C@@H]2O[C@@]3(C)CC[C@H]4[C@H](C)CC[C@@H]1[C@@]24OO3 [Compound 2, dihydroartemisinin]	680 ± 190	3230 ± 1600	10400 ± 610	910 ± 450	1320 ± 260	–
C[C@H]1[C@H](OC(=O)CCC(=O)O)O[C@@H]2O[C@@]3(C)CC[C@H]4[C@H](C)CC[C@@H]1[C@@]24OO3 [Compound 3, artesunate]	1680 ± 440	820 ± 370	> 300000	1080 ± 560	1760 ± 380	IC50 [1, 10]: 1080 ± 600 nM; IC50 [1, 11]: 1090 ± 900 nM; IC50 [3, 12]: 820 ± 50 nM; IC50 [3, 13]: 900 ± 20 nM; IC50 [4, 14]: > 300000 nM; IC50 [4, 15]: > 300000 nM
COc1cc(/C=C/C(=O)CC(=O)/C=C/c2ccc(O)c(OC)c2)ccc1O [Compound 5, curcumin]	> 300000	3000 ± 1350	1690 ± 1240	3950 ± 90	2120 ± 940	–
C=CCc1ccc(O)c(OC)c1 [Compound 6, eugenol]	6880 ± 85	2610 ± 340	1160 ± 320	840 ± 340	4680 ± 1640	–
C=C(C)[C@@H]1CC=C(CO)CC1 [Compound 7, perillyl alcohol]	3800 ± 280	2690 ± 1300	1370 ± 590	1710 ± 520	1630 ± 400	–
OCCc1ccc(O)cc1 [Compound 8, tyrosol]	22700 ± 1830	1690 ± 150	2530 ± 1410	10800 ± 1400	1410 ± 790	–
Cc1c(C)c2c(c(C)c1O)CC[C@@](C)(CCC[C@H](C)CCC[C@H](C)CCCC(C)C)O2 [Compound 9, α-tocopherol]	74100 ± 5090	2350 ± 1050	1220 ± 640	4110 ± 2100	3030 ± 1500	–
C=CCc1ccc(OC(=O)CCC(=O)OC2OC3OC4(C)CCC5C(C)CCC(C2C)C35OO4)c(OC)c1 (stereo not drawn) [Compound 11ii]	–	–	–	–	–	IC50 ([2]; normal human primary fibroblast cell line, MTT): 6790 ± 150 nM; IC50 ([5]; SK-MEL24, MTT, 24 h): 5440 ± 2400 nM; IC50 ([6]; SK-MEL3, MTT, 24 h): 4650 ± 1800 nM; IC50 ([7]; RPMI-7951, MTT, 24 h): 1210 ± 630 nM; IC50 ([8]; read-out: IC50 ± SD HeLa, MTT): 1440 ± 1090 nM
C=C(C)C1CC=C(COC(=O)CCC(=O)OC2OC3OC4(C)CCC5C(C)CCC(C2C)C35OO4)CC1 (stereo not drawn) [Compound 11iii]	–	–	–	–	–	IC50 [1, 17]: 2350 ± 900 nM; cytotoxicity on normal cell line C3PV (in words) ([2]; C3PV, MTT): not cytotoxic; IC50 [3, 18]: 60 ± 10 nM; IC50 [4, 19]: 5240 ± 200 nM; IC50 ([5]; SK-MEL24, MTT, 24 h): 60 ± 100 nM; IC50 ([6]; SK-MEL3, MTT, 24 h): 5240 ± 2290 nM; IC50 ([7]; RPMI-7951, MTT, 24 h): 2350 ± 1520 nM; IC50 ([8]; read-out: IC50 ± SD HeLa, MTT): 1760 ± 470 nM
C[C@H]1[C@H](OC(=O)CCC(=O)Oc2ccc(CCO)cc2)O[C@@H]2O[C@@]3(C)CC[C@H]4[C@H](C)CC[C@@H]1[C@@]24OO3 [Compound 11iv]	–	–	–	–	–	IC50 [1, 17]: 8340 ± 2700 nM; cytotoxicity on normal cell line C3PV (in words) ([2]; C3PV, MTT): not cytotoxic; IC50 [3, 18]: 2320 ± 900 nM; IC50 [4, 19]: 2330 ± 90 nM; IC50 ([5]; SK-MEL24, MTT, 24 h): 2320 ± 1190 nM; IC50 ([6]; SK-MEL3, MTT, 24 h): 2330 ± 1180 nM; IC50 ([7]; RPMI-7951, MTT, 24 h): 8340 ± 3060 nM; activity against HeLa (in words) ([8]; MTT): inactive; IC50 ([8]; read-out: IC50 ± SD HeLa, MTT): > 300000 nM; stability in the cell culture medium (ester bond; release of tyrosol) [9]: No traces of tyrosol were observed
CC(=O)O[C@H]1C(=O)[C@@]2(C)[C@H]([C@H](OC(=O)c3ccccc3)[C@]3(O)C[C@H](OC(=O)[C@H](O)[C@@H](NC(=O)c4ccccc4)c4ccccc4)C(C)=C1C3(C)C)[C@]1(OC(C)=O)CO[C@@H]1C[C@@H]2O [paclitaxel]	78900 ± 790	1040 ± 310	4730 ± 830	13	6 ± 1.4	–
